# Reference: publication PMC10436550, “Subacute toxicity evaluations of LPM3480392 in rats, a full µ-opioid receptor biased agonist” (Frontiers in Pharmacology, 2023)
# Assay: Food consumption, 4-week subacute toxicity study
# Type: in vivo, Sprague Dawley (SD) rats
# Procedure: Food consumption of all surviving animals was recorded twice a week during the dosing phase and then once a week in last 2 weeks of recovery phase.
# [1] = female rats, 0.6 mg/kg/day, Day 3
# [2] = female rats, 0.6 mg/kg/day, Day 7
# [3] = female rats, 0.6 mg/kg/day, Day 10
# [4] = female rats, 0.6 mg/kg/day, Day 14
# [5] = female rats, 0.6 mg/kg/day, Day 17
# [6] = female rats, 0.6 mg/kg/day, Day 21
# [7] = female rats, 0.6 mg/kg/day, Day 24
# [8] = female rats, 0.6 mg/kg/day, Day 28
# [9] = female rats, 0.6 mg/kg/day, Recovery day 20
# [10] = female rats, 0.6 mg/kg/day, Recovery day 27
# [11] = female rats, 1.2 mg/kg/day, Day 3
# [12] = female rats, 1.2 mg/kg/day, Day 7
# [13] = female rats, 1.2 mg/kg/day, Day 10
# [14] = female rats, 1.2 mg/kg/day, Day 14
# [15] = female rats, 1.2 mg/kg/day, Day 17
# [16] = female rats, 1.2 mg/kg/day, Day 21
# [17] = female rats, 1.2 mg/kg/day, Day 24
# [18] = female rats, 1.2 mg/kg/day, Day 28
# [19] = female rats, 1.2 mg/kg/day, Recovery day 20
# [20] = female rats, 1.2 mg/kg/day, Recovery day 27
# [21] = female rats, 2.4 mg/kg/day, Day 3
# [22] = female rats, 2.4 mg/kg/day, Day 7
# [23] = female rats, 2.4 mg/kg/day, Day 10
# [24] = female rats, 2.4 mg/kg/day, Day 14
# [25] = female rats, 2.4 mg/kg/day, Day 17
# [26] = female rats, 2.4 mg/kg/day, Day 21
# [27] = female rats, 2.4 mg/kg/day, Day 24
# [28] = female rats, 2.4 mg/kg/day, Day 28
# [29] = female rats, 2.4 mg/kg/day, Recovery day 20
# [30] = female rats, 2.4 mg/kg/day, Recovery day 27
# [31] = male rats, 0.6 mg/kg/day, Day 3
# [32] = male rats, 0.6 mg/kg/day, Day 7
# [33] = male rats, 0.6 mg/kg/day, Day 10
compound,measurement,setting,value
Fc1ccc([C@]2(CCNCc3cccc(Cl)c3)CCO[C@]3(CCOC3)C2)nc1 [LPM3480392],Food consumption,[1],12.6 ± 1.3 g/animal/cage/day
same,Food consumption change rate,[1],−14.86%
same,Food consumption,[2],15.4 ± 1.1 g/animal/cage/day
same,Food consumption change rate,[2],1.32%
same,Food consumption,[3],15.9 ± 1.1 g/animal/cage/day
same,Food consumption change rate,[3],−3.05%
same,Food consumption,[4],16.0 ± 0.5 g/animal/cage/day
same,Food consumption change rate,[4],−15.79%
same,Food consumption,[5],15.8 ± 1.0 g/animal/cage/day
same,Food consumption change rate,[5],9.72%
same,Food consumption,[6],15.7 ± 0.7 g/animal/cage/day
same,Food consumption change rate,[6],−1.88%
same,Food consumption,[7],14.9 ± 1.4 g/animal/cage/day
same,Food consumption change rate,[7],−6.29%
same,Food consumption,[8],16.4 ± 0.9 g/animal/cage/day
same,Food consumption change rate,[8],−0.61%
same,Food consumption,[9],15.9 g/animal/cage/day
same,Food consumption change rate,[9],−5.36%
same,Food consumption,[10],13.3 g/animal/cage/day
same,Food consumption change rate,[10],−15.82%
same,Food consumption,[11],14.9 ± 1.1 g/animal/cage/day
same,Food consumption change rate,[11],0.68%
same,Food consumption,[12],15.0 ± 1.3 g/animal/cage/day
same,Food consumption change rate,[12],−1.32%
same,Food consumption,[13],15.2 ± 0.6 g/animal/cage/day
same,Food consumption change rate,[13],−7.32%
same,Food consumption,[14],15.7 ± 0.9 g/animal/cage/day
same,Food consumption change rate,[14],−17.37%
same,Food consumption,[15],16.6 ± 0.2 g/animal/cage/day
same,Food consumption change rate,[15],15.28%
same,Food consumption,[16],15.8 ± 1.4 g/animal/cage/day
same,Food consumption change rate,[16],−1.25%
same,Food consumption,[17],16.6 ± 1.7 g/animal/cage/day
same,Food consumption change rate,[17],4.40%
same,Food consumption,[18],16.4 ± 0.8 g/animal/cage/day
same,Food consumption change rate,[18],−0.61%
same,Food consumption,[19],15.1 g/animal/cage/day
same,Food consumption change rate,[19],−10.12%
same,Food consumption,[20],16.7 g/animal/cage/day
same,Food consumption change rate,[20],5.70%
same,Food consumption,[21],13.0 ± 2.1 g/animal/cage/day
same,Food consumption change rate,[21],−12.16%
same,Food consumption,[22],15.8 ± 1.9 g/animal/cage/day
same,Food consumption change rate,[22],3.95%
same,Food consumption,[23],15.1 ± 0.8 g/animal/cage/day
same,Food consumption change rate,[23],−7.93%
same,Food consumption,[24],17.5 ± 1.0 g/animal/cage/day
same,Food consumption change rate,[24],−7.89%
same,Food consumption,[25],15.1 ± 1.0 g/animal/cage/day
same,Food consumption change rate,[25],4.86%
same,Food consumption,[26],17.5 ± 1.3 g/animal/cage/day
same,Food consumption change rate,[26],9.38%
same,Food consumption,[27],15.6 ± 1.2 g/animal/cage/day
same,Food consumption change rate,[27],−1.89%
same,Food consumption,[28],16.7 ± 0.8 g/animal/cage/day
same,Food consumption change rate,[28],1.21%
same,Food consumption,[29],16.4 g/animal/cage/day
same,Food consumption change rate,[29],−2.38%
same,Food consumption,[30],15.0 g/animal/cage/day
same,Food consumption change rate,[30],−5.06%
same,Food consumption,[31],19.7 ± 0.1 g/animal/cage/day
same,Food consumption change rate,[31],−2.96%
same,Food consumption,[32],20.8 ± 0.6 g/animal/cage/day
same,Food consumption change rate,[32],−8.37%
same,Food consumption,[33],23.0 ± 1.6 g/animal/cage/day
same,Food consumption change rate,[33],−17.56%
